Results: paper PMC10066365, “Nemacol is a small molecule inhibitor of C. elegans vesicular acetylcholine transporter with anthelmintic potential” (Nature Communications, 2023)
“And” between values parts separate entries of the source, which are not always exact repeats. Equal values may be shown once.

System: C. elegans
Experiment: C. elegans motor phenotype scoring on solid media (Punc/jerky-unc, coiled, paralyzed), wild-type young adults
Assay type: in vivo, Caenorhabditis elegans
Conditions: for atypical locomotion (number of animals) / no phene (number of animals) / paralyzed (number of animals) / any phene: mean % fraction of young adults exhibiting any phenotype (coiled, jerky-Unc or paralyzed) / coiled (number of animals): one hour; for atypical locomotion (number of animals) / no phene (number of animals) / paralyzed (number of animals) / coiled (number of animals): young adults, 20 animals per trial, single technical replicate; for any phene: mean % fraction of young adults exhibiting any phenotype (coiled, jerky-Unc or paralyzed): mean of three biological replicates; for Fraction Coiled / Fraction Jerky-Unc / Fraction No Phenotype / Fraction Parayzed: 60 min
[1] = 15 µM, N2 adult worms, Averages of 3 biological repeats
[2] = 15 µM, N2 adult worms, Bio Rep 1
[3] = 15 µM, N2 adult worms, Bio Rep 3
[4] = 15 µM, N2 adult worms, Bio rep 2
[5] = 30 µM, N2 adult worms, Averages of 3 biological repeats
[6] = 30 µM, N2 adult worms, Bio Rep 1
[7] = 30 µM, N2 adult worms, Bio Rep 3
[8] = 30 µM, N2 adult worms, Bio rep 2
[9] = 60 µM, N2 adult worms, Averages of 3 biological repeats
[10] = 60 µM, N2 adult worms, Bio Rep 1
[11] = 60 µM, N2 adult worms, Bio Rep 3
[12] = 60 µM, N2 adult worms, Bio rep 2
[13] = 120 µM, N2 adult worms, Averages of 3 biological repeats
[14] = 120 µM, N2 adult worms, Bio Rep 1
[15] = 120 µM, N2 adult worms, Bio Rep 3
[16] = 120 µM, N2 adult worms, Bio rep 2
[17] = 240 µM, N2 adult worms, Averages of 3 biological repeats
[18] = 240 µM, N2 adult worms, Bio Rep 1
[19] = 240 µM, N2 adult worms, Bio Rep 3
[20] = 240 µM, N2 adult worms, Bio rep 2
[21] = N2, 15 µM, adult worms, average of 3 biological repeats
[22] = N2, 30 µM, adult worms, average of 3 biological repeats
[23] = N2, 60 µM, adult worms, average of 3 biological repeats
[24] = N2, 120 µM, adult worms, average of 3 biological repeats
[25] = N2, 240 µM, adult worms, average of 3 biological repeats

## O[C@@H]1CCCC[C@H]1N1CCC(c2ccccc2)CC1 (racemic) [vesamicol, reference compound]
3.75uM
  atypical locomotion (number of animals): 0
  no phene (number of animals): 20
  paralyzed (number of animals): 0
  any phene: mean % fraction of young adults exhibiting any phenotype (coiled, jerky-Unc or paralyzed): 0%
[1]
  Fraction Coiled: 0.00
  Fraction Jerky-Unc: 0.17
  Fraction No Phenotype: 0.83
  Fraction Parayzed: 0.00
[2]
  Fraction Jerky-Unc: 0.2778
  Fraction No Phenotype: 0.72
  Fraction Parayzed: 0
[3]
  Fraction Coiled: 0.00
  Fraction Jerky-Unc: 0.1667
  Fraction No Phenotype: 0.83
  Fraction Parayzed: 0
[4]
  Fraction Coiled: 0.00
  Fraction Jerky-Unc: 0.05556
  Fraction No Phenotype: 0.94
  Fraction Parayzed: 0
15uM
  atypical locomotion (number of animals): 0
  coiled (number of animals): 0
  no phene (number of animals): 20
  paralyzed (number of animals): 0
  any phene: mean % fraction of young adults exhibiting any phenotype (coiled, jerky-Unc or paralyzed): 0%
[5]
  Fraction Coiled: 0.00
  Fraction Jerky-Unc: 0.41
  Fraction No Phenotype: 0.59
  Fraction Parayzed: 0.00
[6]
  Fraction Coiled: 0.00
  Fraction Jerky-Unc: 0.3889
  Fraction No Phenotype: 0.61
  Fraction Parayzed: 0
[7]
  Fraction Coiled: 0.00
  Fraction Jerky-Unc: 0.4444
  Fraction No Phenotype: 0.56
  Fraction Parayzed: 0
[8]
  Fraction Coiled: 0.00
  Fraction Jerky-Unc: 0.3889
  Fraction No Phenotype: 0.61
  Fraction Parayzed: 0
[9]
  Fraction Coiled: 0.0566
  Fraction Jerky-Unc: 0.62
  Fraction No Phenotype: 0.32
  Fraction Parayzed: 0.00
[10]
  Fraction Coiled: 0.0556
  Fraction Jerky-Unc: 0.7222
  Fraction No Phenotype: 0.22
  Fraction Parayzed: 0
[11]
  Fraction Coiled: 0.06
  Fraction Jerky-Unc: 0.5294
  Fraction No Phenotype: 0.41
  Fraction Parayzed: 0
[12]
  Fraction Coiled: 0.0556
  Fraction Jerky-Unc: 0.6111
  Fraction No Phenotype: 0.33
  Fraction Parayzed: 0
60uM
  atypical locomotion (number of animals): 0 and 1 and 3 and 5 and 2
  coiled (number of animals): 1 and 0
  no phene (number of animals): 19 and 18 and 17 and 15
  paralyzed (number of animals): 0
  any phene: mean % fraction of young adults exhibiting any phenotype (coiled, jerky-Unc or paralyzed): 11.6667%
[13]
  Fraction Coiled: 0.0556
  Fraction Jerky-Unc: 0.74
  Fraction No Phenotype: 0.17
  Fraction Parayzed: 0.037
[14]
  Fraction Coiled: 0.11
  Fraction Jerky-Unc: 0.7778
  Fraction No Phenotype: 0.0556
  Fraction Parayzed: 0.05556
[15]
  Fraction Coiled: 0.00
  Fraction Jerky-Unc: 0.7222
  Fraction No Phenotype: 0.28
  Fraction Parayzed: 0
[16]
  Fraction Coiled: 0.0556
  Fraction Jerky-Unc: 0.7222
  Fraction No Phenotype: 0.17
  Fraction Parayzed: 0.05556
[17]
  Fraction Coiled: 0.11
  Fraction Jerky-Unc: 0.80
  Fraction No Phenotype: 0.0741
  Fraction Parayzed: 0.0185
[18]
  Fraction Coiled: 0.11
  Fraction Jerky-Unc: 0.8333
  Fraction No Phenotype: 0.00
  Fraction Parayzed: 0.05556
[19]
  Fraction Coiled: 0.11
  Fraction Jerky-Unc: 0.7222
  Fraction No Phenotype: 0.17
  Fraction Parayzed: 0
[20]
  Fraction Coiled: 0.11
  Fraction Jerky-Unc: 0.8333
  Fraction No Phenotype: 0.0556
  Fraction Parayzed: 0
Caenorhabditis elegans, 1 h
  EC50: 38.6 ± 3.5 µM
[21]
  Fraction Coiled: 0.00
  Fraction Jerky-Unc: 0.17
  Fraction No Phenotype: 0.83
  Fraction Parayzed: 0.00
[22]
  Fraction Coiled: 0.00
  Fraction Jerky-Unc: 0.41
  Fraction No Phenotype: 0.59
  Fraction Parayzed: 0.00
[23]
  Fraction Coiled: 0.0566
  Fraction Jerky-Unc: 0.62
  Fraction No Phenotype: 0.32
  Fraction Parayzed: 0.00
[24]
  Fraction Coiled: 0.0556
  Fraction Jerky-Unc: 0.74
  Fraction No Phenotype: 0.17
  Fraction Parayzed: 0.037
[25]
  Fraction Coiled: 0.11
  Fraction Jerky-Unc: 0.80
  Fraction No Phenotype: 0.0741
  Fraction Parayzed: 0.0185
Vesamicol EC50 higher, Nemacol-1 more potent
  fold difference in C. elegans EC50, Vesamicol vs Nemacol-1: 5.4 fold
